From US20160251341A1, “SUBSTITUTED TRIAZOLE COMPOUNDS AS SERINE PROTEASE INHIBITORS” (Verseon Corporation, priority 2015, published 2016)
Structures can show the parent of a compound that is named as a salt.

The molecules below were run against T1, Human thrombin (Homo sapiens, UniProt P00734) (assay: Thrombin protease inhibition assay (chromogenic substrate S-2238)). Conditions: 3 nM human thrombin, 125 μM S-2238, 10 min pre-incubation, RT.
T1 construct: purchased Haematologic Technologies Inc
Format: biochemical
Procedure: The thrombin activity reported herein (e.g., Table A) was obtained as follows. Human thrombin was obtained from Haematologic Technologies Inc. The chromogenic substrate S-2238 was obtained from DiaPharma. Thrombin was assayed in buffer containing 0.05 M Tris (pH 7.4), 0.015 M NaCl and 0.01% PEG-8000. The final concentration of enzyme used was 3 nM thrombin. The final concentration of substrate used was 125 μM S-2238 for thrombin. All assays were performed in 96-well microtiter plates at room temperature (RT). The enzyme and inhibitor were pre-incubated for 10 minutes then substrate was added and read at 405 nm in a SpectraMax Plus Spectrophotometer (Molecular Devices). Inhibitor IC50 values were determined by adding test compound as ten point, three-fold serial dilutions in buffer solution, as known in the art. The plate was read at 10 minutes after substrate addition. The IC50 was calculated by plotting the percent (%) inhibition against compound concentration and fitting the data to a constrained four parameter sigmoidal curve, as known in the art.

| IC50 [nM] | SMILES |
| --- | --- |
| ≤ 100 | COc1ccccc1C(=O)n1nc(C2CCN(C(=O)N3CCCC3)CC2)nc1NCc1ccc(Cl)s1 [Entry 48, N-[(5-chlorothiophen-2-yl)methyl]-1-(2-methoxybenzoyl)-3-[1-(pyrrolidine-1-carbonyl)piperidin-4-yl]-1H-1,2,4-triazol-5-amine] |
| ≤ 100 | COc1ccccc1C(=O)n1nc(C2CN(S(=O)(=O)C(C)C)C2)nc1NCc1ccc(Cl)s1 [Entry 46, N-[(5-chlorothiophen-2-yl)methyl]-1-(2-methoxybenzoyl)-3-[1-(propane-2-sulfonyl)azetidin-3-yl]-1H-1,2,4-triazol-5-amine] |
| ≤ 100 | COc1ccccc1C(=O)n1nc(C2CCN(S(=O)(=O)C3CCCCC3)CC2)nc1NCc1ccc(Cl)s1 [Entry 64, N-[(5-chlorothiophen-2-yl)methyl]-3-[1-(cyclohexanesulfonyl)piperidin-4-yl]-1-(2-methoxybenzoyl)-1H-1,2,4-triazol-5-amine] |
| ≥ 100000 | COc1ccccc1C(=O)n1nc(C2=C(O)CCCC2)nc1NCc1ccccc1 [Entry 16, 2-[5-(benzylamino)-1-(2-methoxybenzoyl)-1H-1,2,4-triazol-3-yl]cyclohex-1-en-1-ol] |
| 100 to 1000 | COc1ccccc1C(=O)n1nc(C2CCCN2C(=O)OC(C)(C)C)nc1NCc1ccc(Cl)s1 (stereo not shown) [Entry 68, tert-butyl 2-(5-[(5-chlorothiophen-2-yl)methyl]amino-1-(2-methoxybenzoyl)-1H-1,2,4-triazol-3-yl)pyrrolidine-1-carboxylate] |
| ≤ 100 | O=C(c1cccc2c1OCCO2)n1nc(C2CNC2)nc1NCc1ccc(Cl)s1 [Entry 21, 3-(azetidin-3-yl)-N-[(5-chlorothiophen-2-yl)methyl]-1-(2,3-dihydro-1,4-benzodioxine-5-carbonyl)-1H-1,2,4-triazol-5-amine; trifluoroacetic acid] |
| ≤ 100 | COc1ccccc1C(=O)n1nc(C2CCOCC2)nc1NCc1ccc(Cl)s1 [Entry 40, N-[(5-chlorothiophen-2-yl)methyl]-1-(2-methoxybenzoyl)-3-(oxan-4-yl)-1H-1,2,4-triazol-5-amine] |
| ≤ 100 | COc1ccccc1C(=O)n1nc(C2CCNCC2)nc1NCc1ccc(Cl)s1 [Entry 43, N-[(5-chlorothiophen-2-yl)methyl]-1-(2-methoxybenzoyl)-3-(piperidin-4-yl)-1H-1,2,4-triazol-5-amine] |
| ≤ 100 | COc1ccccc1C(=O)n1nc(C2CCN(C(=O)OC(C)(C)C)CC2)nc1NCc1ccc(Cl)s1 [Entry 74, tert-butyl 4-(5-[(5-chlorothiophen-2-yl)methyl]amino-1-(2-methoxybenzoyl)-1H-1,2,4-triazol-3-yl)piperidine-1-carboxylate] |
| ≤ 100 | COc1ccccc1C(=O)n1nc(C2CN(S(C)(=O)=O)C2)nc1NCc1ccc(Cl)s1 [Entry 54, N-[(5-chlorothiophen-2-yl)methyl]-3-(1-methanesulfonylazetidin-3-yl)-1-(2-methoxybenzoyl)-1H-1,2,4-triazol-5-amine] |
| ≤ 100 | O=C(c1cccc2c1OCCO2)n1nc(C2CCNCC2)nc1NCc1ccc(Cl)s1 [Entry 35, N-[(5-chlorothiophen-2-yl)methyl]-1-(2,3-dihydro-1,4-benzodioxine-5-carbonyl)-3-(piperidin-4-yl)-1H-1,2,4-triazol-5-amine hydrochloride] |
| ≤ 100 | COc1ccc(C(=O)n2nc(C3CCCO3)nc2NCc2ccc(Cl)s2)c(OC)c1 (stereo not shown) [Entry 37, N-[(5-chlorothiophen-2-yl)methyl]-1-(2,4-dimethoxybenzoyl)-3-(oxolan-2-yl)-1H-1,2,4-triazol-5-amine] |
| ≤ 100 | COc1ccc(C(=O)n2nc(C3CCOC3)nc2NCc2ccc(Cl)s2)c(OC)c1 (stereo not shown) [Entry 38, N-[(5-chlorothiophen-2-yl)methyl]-1-(2,4-dimethoxybenzoyl)-3-(oxolan-3-yl)-1H-1,2,4-triazol-5-amine] |
| ≤ 100 | COc1ccc(C(=O)n2nc(C3CCOCC3)nc2NCc2ccc(Cl)s2)c(OC)c1 [Entry 36, N-[(5-chlorothiophen-2-yl)methyl]-1-(2,4-dimethoxybenzoyl)-3-(oxan-4-yl)-1H-1,2,4-triazol-5-amine] |
| 1000 to 10000 | COc1ccccc1C(=O)n1nc(C2CCOCC2)nc1NCc1ccccc1 [Entry 65, N-benzyl-1-(2-methoxybenzoyl)-3-(oxan-4-yl)-1H-1,2,4-triazol-5-amine] |
| ≤ 100 | COc1ccccc1C(=O)n1nc(C2CCOC2)nc1NCc1ccc(Cl)s1 (stereo not shown) [Entry 42, N-[(5-chlorothiophen-2-yl)methyl]-1-(2-methoxybenzoyl)-3-(oxolan-3-yl)-1H-1,2,4-triazol-5-amine] |
| ≤ 100 | COc1ccccc1C(=O)n1nc(C2CCCO2)nc1NCc1ccc(Cl)s1 (stereo not shown) [Entry 41, N-[(5-chlorothiophen-2-yl)methyl]-1-(2-methoxybenzoyl)-3-(oxolan-2-yl)-1H-1,2,4-triazol-5-amine] |
| ≤ 100 | COc1ccccc1C(=O)n1nc(C2CCN(C(=O)N(C)C)CC2)nc1NCc1ccc(Cl)s1 [Entry 30, 4-(5-[(5-chlorothiophen-2-yl)methyl]amino-1-(2-methoxybenzoyl)-1H-1,2,4-triazol-3-yl)-N,N-dimethylpiperidine-1-carboxamide] |
| ≤ 100 | COc1ccccc1C(=O)n1nc(C2CN(C(=O)OC(C)(C)C)C2)nc1NCc1ccc(Cl)s1 [Entry 71, tert-butyl 3-(5-[(5-chlorothiophen-2-yl)methyl]amino-1-(2-methoxybenzoyl)-1H-1,2,4-triazol-3-yl)azetidine-1-carboxylate] |
| ≤ 100 | COc1ccccc1C(=O)n1nc(C2CCN(S(=O)(=O)C(C)C)CC2)nc1NCc1ccc(Cl)s1 [Entry 47, N-[(5-chlorothiophen-2-yl)methyl]-1-(2-methoxybenzoyl)-3-[1-(propane-2-sulfonyl)piperidin-4-yl]-1H-1,2,4-triazol-5-amine] |
| ≤ 100 | COc1ccccc1C(=O)n1nc(C2CCN(C(N)=O)CC2)nc1NCc1ccc(Cl)s1 [Entry 31, 4-(5-[(5-chlorothiophen-2-yl)methyl]amino-1-(2-methoxybenzoyl)-1H-1,2,4-triazol-3-yl)piperidine-1-carboxamide] |
| ≤ 100 | COc1ccccc1C(=O)n1nc(C2CN(S(=O)(=O)c3ccccc3)C2)nc1NCc1ccc(Cl)s1 [Entry 27, 3-[1-(benzenesulfonyl)azetidin-3-yl]-N-[(5-chlorothiophen-2-yl)methyl]-1-(2-methoxybenzoyl)-1H-1,2,4-triazol-5-amine] |

Second part, the molecule before the results:

| SMILES | IC50 [nM] |
| --- | --- |
| Clc1ccc(CNc2nc(C3CCCO3)n[nH]2)s1 (stereo not shown) [Entry 60, N-[(5-chlorothiophen-2-yl)methyl]-3-(oxolan-2-yl)-1H-1,2,4-triazol-5-amine] | ≥ 100000 |
| O=C(C1CCCC1)n1nc(C2CNC2)nc1NCc1ccc(Cl)s1 [Entry 23, 3-(azetidin-3-yl)-N-[(5-chlorothiophen-2-yl)methyl]-1-cyclopentanecarbonyl-1H-1,2,4-triazol-5-amine] | ≥ 100000 |
| Nc1nc(C2CCCO2)n[nH]1 (stereo not shown) [Entry 25, 3-(oxolan-2-yl)-1H-1,2,4-triazol-5-amine] | ≥ 100000 |
| Nc1nc(C2CCOC2)n[nH]1 (stereo not shown) [Entry 26, 3-(oxolan-3-yl)-1H-1,2,4-triazol-5-amine] | ≥ 100000 |
| OC1=C(c2n[nH]c(NCc3ccccc3)n2)CCCC1 [Entry 17, 2-[5-(benzylamino)-1H-1,2,4-triazol-3-yl]cyclohex-1-en-1-ol] | ≥ 100000 |
| Clc1ccc(CNc2nc(C3CCOCC3)n[nH]2)s1 [Entry 58, N-[(5-chlorothiophen-2-yl)methyl]-3-(oxan-4-yl)-1H-1,2,4-triazol-5-amine] | ≥ 100000 |
| CC(C)(C)OC(=O)N1CCC(c2n[nH]c(N)n2)CC1 [Entry 73, tert-butyl 4-(5-amino-1H-1,2,4-triazol-3-yl)piperidine-1-carboxylate] | ≥ 100000 |
| CC(C)(C)OC(=O)N1CC(c2n[nH]c(NCc3ccc(Cl)s3)n2)C1 [Entry 72, tert-butyl 3-(5-[(5-chlorothiophen-2-yl)methyl]amino-1H-1,2,4-triazol-3-yl)azetidine-1-carboxylate] | ≥ 100000 |
| O=C(c1ccoc1)n1nc(C2CCOC2)nc1NCc1ccc(Cl)s1 (stereo not shown) [Entry 53, N-[(5-chlorothiophen-2-yl)methyl]-1-(furan-3-carbonyl)-3-(oxolan-3-yl)-1H-1,2,4-triazol-5-amine] | ≤ 100 |
| c1ccc(CNc2nc(C3CCOCC3)n[nH]2)cc1 [Entry 66, N-benzyl-3-(oxan-4-yl)-1H-1,2,4-triazol-5-amine] | ≥ 100000 |
| O=C(c1ccoc1)n1nc(C2CCCO2)nc1NCc1ccc(Cl)s1 (stereo not shown) [Entry 52, N-[(5-chlorothiophen-2-yl)methyl]-1-(furan-3-carbonyl)-3-(oxolan-2-yl)-1H-1,2,4-triazol-5-amine] | ≤ 100 |
| CC(C)(C)OC(=O)N1CCC(c2n[nH]c(NCc3ccc(Cl)s3)n2)CC1 [Entry 75, tert-butyl 4-(5-[(5-chlorothiophen-2-yl)methyl]amino-1H-1,2,4-triazol-3-yl)piperidine-1-carboxylate] | ≥ 100000 |
| Nc1nc(C2CCOCC2)n[nH]1 [Entry 24, 3-(oxan-4-yl)-1H-1,2,4-triazol-5-amine] | ≥ 100000 |
| Nc1nc(C2=C(OCc3ccc(Cl)s3)CCCC2)n[nH]1 [Entry 29, 3-2-[(5-chlorothiophen-2-yl)methoxy]cyclohex-1-en-1-yl-1H-1,2,4-triazol-5-amine] | ≥ 100000 |
| COC1CCCCC1c1n[nH]c(N)n1 (stereo not shown) [Entry 18, 3-(2-methoxycyclohexyl)-1H-1,2,4-triazol-5-amine] | ≥ 100000 |
